Earlier results in US6703045B2, “Composition and method for maintaining blood glucose level” (Council of Scientific & Industrial Research, priority 2001, dated 2004).

[1] = approximate incidence in patients

Cc1cnc(C(=O)NCCc2ccc(S(=O)(=O)NC(=O)NC3CCCCC3)cc2)cn1 [Glipizide, 1-cyclohexyl-3-[[p-[2-(5-methylpyrazinecarboxamido)ethyl]phenyl]sulfonyl] urea]
incidence of constipation and gastralgia [1]: one in one hundred
incidence of nausea and diarrhea [1]: one in seventy
incidence of dizziness, drowsiness, and headache (each) (patients): about one in fifty
